US7056728B2, “Compositions and methods for use thereof in modifying the genomes of microorganisms” (priority 2000, dated 2006)

Assays:
[1] = test system: S. pneumoniae A66.1 Xen 10; set-up: species or system Streptococcus pneumoniae; details: in vivo
Experimental: Thus, the strains HUSTMBIG, A66.1, EF3030 and 140301 were made bioluminescent and tested in both mouse lung and nasopharyngeal models. Briefly, exponential cultures of S. pneumoniae grown at 37° C. in BHI were pelleted and then resuspended in fresh BHI broth. Bacterial concentrations were estimated spectrophotometrically by absorbance at 600 nm and adjusted to approximately […] by dilution BHI. Cell numbers were verified by plating dilutions of inoculum onto BHI agar.
Pneumococci were introduced into the lungs of the mice by either direct intratracheal inoculation, or by intranasal administration. The animals were anesthetized with ketamine (100 mg/ml) and xylazine (20 mg/ml), mixed at a 4:1 ratio v/v just before use. The anesthesia mixture was injected intramuscularly into the right hamstring muscle at a dose of 100 mg ketamine/kg of body weight. After anesthesia was established, the mice were inoculated with approximately 10^6 CFU in a total volume of 20 μl, using a 25 ga. Ball-tipped gavage needle. Mice were held in vertical suspension for 10 minutes after inoculation to facilitate deep penetration of the inoculum. Alternatively, mice were infected intranasally with approximately 10^6 CFU by placing 20 μl of bacterial suspension on the nares and allowing the mice to inhale the inoculum. In the antibiotic studies, mice were treated with amoxicillin at 1 mg/kg or 5 mg/kg, given subcutaneously at t=0, 18, 24, and 42 hours post-infection.
Mice were imaged for a maximum of 5 min at a number of time points post-infection using an IVIS™ CCD camera (Xenogen Corporation, Alameda, Calif.). Total photon emission from selected and defined areas within the images of each mouse was quantified using the LivingImage™ software package (Xenogen Corporation, Alameda, Calif.). The photon signal from the thorax was quantified from the ventral image of each mouse.
Twelve mice were inoculated with approximately 10^6 CFU of S. pneumoniae A66.1 Xen 10. The mice were divided into three groups of four animals and two of these groups were treated with an amoxicillin regime at 1 or 5 mg/kg, the third group of animals remaining untreated as controls.
After the final imaging time point, mice were sacrificed and the infected lung tissue was surgically removed and weighed. Both lungs were homogenized together in 500 μl BHI in a loose Dounce homogenizer. The suspension was serially diluted in BHI and plated in duplicate onto BHI agar. Bacterial burden was estimated from the number of CFU/g of lung tissue. The bacterial load present in the nasal passage of the mice was obtained by washing approximately 0.25 ml of saline through the trachea and collecting the first 0.1 ml of nasal wash as it exited the nares, as described (Lipsitch et al. (2000) Vaccine 18:2895–2901; Wu et al. (1997) Microb. Pathog. 23:127–137).

[2] = test system: S. pneumoniae pAUL-A Tn4001 luxABCDE km^R; experiment: growth and colony formation of S. pneumoniae transformants in the presence of kanamycin; format: cell-based, Streptococcus pneumoniae; details: 10^3 CFUs plated on chocolate agar, increasing kanamycin 400 to 1000 μg/ml; approximately 1000 CFUs without kanamycin
[3] = test system: MRSA strain I6; experiment: antibiotic resistance of MRSA strain; format: cell-based, S. aureus

## CC1(C)S[C@@H]2[C@H](NC(=O)[C@H](N)c3ccc(O)cc3)C(=O)N2[C@H]1C(=O)O [amoxicillin]
[1]
  appearance of treated mice: appeared relatively healthy
  highest number of pneumococci isolated from a treated animal (lung tissue): 300 CFU/g tissue
  treated animals showing no bacteria present in lung tissue: four of the eight
[1]; sc, 1 mg/kg
  animals with a bioluminescent signal: Three of the four
[1]; sc, 5 mg/kg
  animals with a significant bioluminescent signal: None of the four

## NC[C@H]1O[C@H](O[C@H]2[C@H](O)[C@@H](O[C@H]3O[C@H](CO)[C@@H](O)[C@H](N)[C@H]3O)[C@H](N)C[C@@H]2N)[C@H](O)[C@@H](O)[C@@H]1O [kanamycin]
[2]
  number of colonies (average): 56 to 35

## O=C(N[C@H](CO)[C@H](O)c1ccc([N+](=O)[O-])cc1)C(Cl)Cl [chloremphenicol]
[3]
  resistance of strain to antibiotics tested: resistant to all the antibiotics tested except for chloremphenicol
